Measurements from ChEMBL document CHEMBL4130627, “Prodrugs of the Phosphoribosylated Forms of Hydroxypyrazinecarboxamide Pseudobase T-705 and Its De-Fluoro Analogue T-1105 as Potent Influenza Virus Inhibitors” (J Med Chem, 2018).
pEC50, pIC50: −log10 of the molar value.

Experiments:
[1] = Half life of the compound in 25 mM phosphate buffe at pH 1.5 to 7.3 by RP-HPLC analysis; type: physicochemical; conditions: phosphate buffer
[2] = Inhibition of Influenza virus A/X-31 RNA dependent RNA polymerase using ApG primer [adenyl (3'-5') guanosine] and [8-3H]GTP after 1 hr by filter-based assay; set-up: species or system Influenza A virus (A/X-31(H3N2))
[3] = Inhibition of Influenza virus B/Ned/537/05 RNA dependent RNA polymerase using ApG primer [adenyl (3'-5') guanosine] and [8-3H]GTP after 1 hr by filter-based assay
MDCK [4] = experiment: Prodrug activation in HGPRT deficient MDCK cells assessed as T-1105-RMP formation at 465 uM after 1 to 840 mins by RP-HPLC-UV analysis; type: cell-based, Canis lupus familiaris; conditions: dog
MDCK [5] = experiment: Prodrug activation in MDCK cells assessed as T-1105-RMP formation at 465 uM after 1 to 840 mins by RP-HPLC-UV analysis; type: cell-based, Canis lupus familiaris; conditions: dog
[6] = Cytotoxicity against MDCK cells assessed as reduction in cell viability after 3 days by formazan-based MTS assay; set-up: species or system Canis lupus familiaris; conditions: dog
Influenza B virus [7] = experiment: microbe, parasite or virus in culture; conditions: Ned/537/05, MDCK, 72 h
Description: Antiviral activity against Influenza virus B/Ned/537/05 infected in MDCK cells assessed as reduction in viral replication at 3 days post infection by microscopic analysis

Influenza A virus [8] = experiment: microbe, parasite or virus in culture; conditions: MDCK, 72 h
Description: Antiviral activity against Influenza virus A/X-31 infected in MDCK cells assessed as reduction in viral replication at 3 days post infection by formazan-based MTS assay

Influenza B virus [9] = experiment: microbe, parasite or virus in culture; conditions: Ned/537/05, MDCK, 72 h; remark: listed apart in the source
Description: Antiviral activity against Influenza virus B/Ned/537/05 infected in MDCK cells assessed as reduction in viral replication at 3 days post infection by formazan-based MTS assay

Influenza A virus [10] = experiment: microbe, parasite or virus in culture; conditions: MDCK, 72 h; remark: listed apart in the source
Description: Antiviral activity against Influenza virus A/X-31 infected in MDCK cells assessed as reduction in viral replication at 3 days post infection by microscopic analysis

[11] = Cytotoxicity against HGPRT deficient 6-thioguanine-resistant MDCK cells assessed as change in cell morphology after 3 days by microscopic analysis; type: cell-based, Canis lupus familiaris; conditions: dog
[12] = Cytotoxicity against MDCK cells assessed as change in cell morphology after 3 days by microscopic analysis; type: cell-based, Canis lupus familiaris; conditions: dog
[13] = Prodrug activation in phosphate buffer at pH 7.3 assessed as half life for T-1105-RMP formation up to 332 hrs by RP-HPLC-UV analysis; type: physicochemical; conditions: pH 7.3, 332 h
MDCK [14] = type: cell-based, Canis lupus familiaris; conditions: dog, 2 h, 500 µM
MDCK [15] = experiment: Prodrug activation in MDCK cells assessed as T-1105-RTP formation at 450 uM up to 4 hrs by RP-HPLC-UV analysis; type: cell-based, Canis lupus familiaris; conditions: dog
Liver carboxylesterase = biological target: T1, Liver carboxylesterase (Sus scrofa, UniProt Q29550); experiment: Drug metabolism assessed as pig liver esterase mediated 4-(((((((2R,3S,4R,5R)-5-(3-carbamoyl-2-oxopyrazin-1(2H)-yl)-3,4-dihydroxytetrahydrofuran-2-yl)methoxy)(hydroxy)phosphoryloxy)(hydroxy)phosphoryloxy)(hydroxy)phosphoryloxy)methyl)phenyl decanoate formation at 450 uM after 1 to 8 hrs by RP-HPLC-UV analysis; type: ADME; conditions: isolated protein
T1 sequence (Q29550 whole entry): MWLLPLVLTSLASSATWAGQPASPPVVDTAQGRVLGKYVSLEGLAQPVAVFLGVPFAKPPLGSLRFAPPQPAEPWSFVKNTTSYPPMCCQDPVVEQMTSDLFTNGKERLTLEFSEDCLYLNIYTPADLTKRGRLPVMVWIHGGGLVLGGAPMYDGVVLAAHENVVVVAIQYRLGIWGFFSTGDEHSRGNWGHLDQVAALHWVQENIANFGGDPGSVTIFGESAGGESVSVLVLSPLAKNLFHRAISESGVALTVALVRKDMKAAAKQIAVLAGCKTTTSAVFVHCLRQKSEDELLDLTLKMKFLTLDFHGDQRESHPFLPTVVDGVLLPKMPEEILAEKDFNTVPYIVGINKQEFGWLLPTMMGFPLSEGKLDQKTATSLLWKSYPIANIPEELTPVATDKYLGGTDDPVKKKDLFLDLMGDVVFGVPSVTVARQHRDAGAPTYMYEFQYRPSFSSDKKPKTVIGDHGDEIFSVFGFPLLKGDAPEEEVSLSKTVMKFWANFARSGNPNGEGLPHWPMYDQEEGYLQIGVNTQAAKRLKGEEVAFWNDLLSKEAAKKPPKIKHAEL

[16] = Drug metabolism in MDCK cells assessed as 4-((((((2R,3S,4R,5R)-5-(3-carbamoyl-2-oxopyrazin-1(2H)-yl)-3,4-dihydroxytetrahydrofuran-2-yl)methoxy)(hydroxy)phosphoryloxy)(hydroxy)phosphoryloxy)methyl)phenyl decanoate formation at 450 uM up to 4 hrs by RP-HPLC-UV analysis; type: ADME, cell-based, Canis lupus familiaris; conditions: dog
MDCK [17] = experiment: Prodrug activation in MDCK cells assessed as T-1105-RMP formation at 450 uM up to 4 hrs by RP-HPLC-UV analysis; type: cell-based, Canis lupus familiaris; conditions: dog
MDCK [18] = experiment: Prodrug activation in MDCK cells assessed as T-1105-RDP formation at 500 uM after 2 hrs by RP-HPLC-UV analysis; type: cell-based, Canis lupus familiaris; conditions: dog
[19] = Drug metabolism in MDCK cells assessed as T-1105-RDP formation at 450 uM up to 4 hrs by RP-HPLC-UV analysis; type: ADME, cell-based, Canis lupus familiaris; conditions: dog
MDCK [20] = type: cell-based, Canis lupus familiaris; conditions: dog, 714 µM
MDCK [21] = experiment: Prodrug activation in MDCK cells assessed as parent compound remaining at 714 uM after 25 hrs by RP-HPLC-UV analysis; type: cell-based, Canis lupus familiaris; conditions: dog
MDCK [22] = experiment: Prodrug activation in MDCK cells assessed as T-705-RMP formation at 714 uM after 25 hrs by RP-HPLC-UV analysis; type: cell-based, Canis lupus familiaris; conditions: dog

Row | Compound | pIC50 [2] | pIC50 [3] | CC50 at 72 h [6] [µM] | pEC50 (Influenza B virus [7]) | pEC50 (Influenza A virus [8]) | pEC50 (Influenza B virus [9]) | pEC50 (Influenza A virus [10]) | MCC at 72 h [11] [µM] | MCC at 72 h [12] [µM] | other results
1 | Nc1ncnc2c1ncn2[C@H]1CC[C@@H](COP2(=O)OCc3ccccc3O2)O1 (stereo partly specified) |  |  |  |  |  |  |  |  |  | half-life [1]: 600 to 2700 min
2 | Nc1nc2c(ncn2[C@@H]2O[C@H](COP(=O)(O)OP(=O)(O)OP(=O)(O)O)[C@@H](O)[C@H]2F)c(=O)[nH]1 | 5.60 | 5.36 |  |  |  |  |  |  |  | 
3 | NC(=O)c1nccn([C@@H]2O[C@H](COP(=O)(O)OP(=O)(O)OP(=O)(O)O)[C@@H](O)[C@H]2O)c1=O | 5.01 to 6.32 | 6.16 |  |  |  |  |  |  |  | Drug metabolism (MDCK [4]): Metabolite_Detected; Drug metabolism (MDCK [5]): Metabolite_Detected
4 | CC(=O)O[C@@H]1[C@H](OC(C)=O)[C@@H](COP2(=O)OCc3cccc(C)c3O2)O[C@H]1n1ccnc(C(N)=O)c1=O (stereo partly specified) |  |  | > 400 | < 3.40 | < 3.40 | 3.89 | < 3.40 | 400 | 400 | 
5 | NC(=O)c1ncn([C@@H]2O[C@H](CO)[C@@H](O)[C@H]2O)n1 [RIBAVIRIN] |  |  | > 100 | 5.23 | 4.89 | 5.35 |  | 35 | 59 | 
6 | NC(=O)c1nccn([C@@H]2O[C@H](CO)[C@@H](O)[C@H]2O)c1=O |  |  | > 250 | 4.62 | 4.28 | 4.72 | 4.24 | > 250 | > 250 | 
7 | Nc1nc2c(ncn2[C@@H]2O[C@H](COP(=O)(O)OP(=O)(O)OP(=O)(O)O)C[C@H]2O)c(=O)[nH]1 | 4.80 |  |  |  |  |  |  |  |  | 
8 | CC(C)(C)c1cc2c(c(C(C)(C)C)c1)OP(=O)(OC[C@H]1O[C@@H](n3ccnc(C(N)=O)c3=O)[C@H](O)[C@@H]1O)OC2 (stereo partly specified) |  |  |  |  |  |  |  |  |  | t1/2 [13]: 16 h
9 | CCCCCCCCCC(=O)Oc1ccc(COP(=O)(OCc2ccc(OC(=O)CCCCCCCCC)cc2)OP(=O)(O)OP(=O)(O)OC[C@H]2O[C@@H](n3ccnc(C(N)=O)c3=O)[C@H](O)[C@@H]2O)cc1.CCN(CC)CC.CCN(CC)CC | 3.90 to 4.31 | 3.90 to 4.31 | 30 | 5.59 | 5.44 | 5.62 | 5.59 | 13 | 16 | Drug metabolism (MDCK [14]): Metabolite_Detected; Drug metabolism (MDCK [15]): Metabolite_Notdetected; Drug metabolism (Liver carboxylesterase): Metabolite_Detected; Drug metabolism [16]: Metabolite_Detected; Drug metabolism (MDCK [17]): Metabolite_Detected; Drug metabolism (MDCK [18]): Metabolite_Detected; Drug metabolism [19]: Metabolite_Detected
10 | NC(=O)c1nc(F)c[nH]c1=O |  |  | > 250 |  |  |  |  | > 250 | > 250 | Drug metabolism (MDCK [20]): Metabolite_Notdetected; Stability (MDCK [21]): 65%; Drug metabolism (MDCK [22]): Metabolite_Detected
